Measured values taken from ChEMBL document CHEMBL3632478, “Design, synthesis and biological evaluation of imidazopyridine/imidazopyrimidine-benzimidazole conjugates as potential anticancer agents” (Medchemcomm, 2015).
Activity calls are given as the source filed them. The rule behind the calls is not given here.

Columns and labels:
[1] = system: A549; assay: Antiproliferative activity against human A549 cells after 48 hrs by MTT assay; format: functional, cell-based; conditions: A549, 48 h
[2] = system: B16; assay: Antiproliferative activity against mouse B16 cells after 48 hrs by MTT assay; format: functional, cell-based; conditions: B16, 48 h
[3] = system: HeLa; assay: Antiproliferative activity against human HeLa cells after 48 hrs by MTT assay; format: functional, cell-based
[4] = system: DU-145; assay: Antiproliferative activity against human DU145 cells after 48 hrs by MTT assay; format: functional, cell-based; conditions: DU-145, 48 h
[5] = system: A549; assay: Cell cycle arrest in human A549 cells assessed as accumulation at sub G1 phase at 1 uM after 48 hrs by propidium iodide based flow cytometry (reference value: 0.65%); format: functional
[6] = system: A549; assay: Induction of apoptosis in human A549 cells assessed as dead cells at 2 uM after 48 hrs by annexin V-FITC and propidium iodide double staining based flow cytometric analysis (Rvb =0.07%); format: functional
[7] = system: A549; assay: Cell cycle arrest in human A549 cells assessed as accumulation at G0/G1 phase at 1 uM after 48 hrs by propidium iodide based flow cytometry (reference value: 85.63%); format: functional
[8] = system: A549; assay: Induction of apoptosis in human A549 cells assessed as viable cells at 1 uM after 48 hrs by annexin V-FITC and propidium iodide double staining based flow cytometric analysis (reference value: 99.79%); format: functional; conditions: A549, 48 h, read-out: Activity
[9] = molecular target: Tubulin (Sus scrofa, UniProt P02554+P02550); assay: Inhibition of porcine brain tubulin polymerization after 1 hr by fluorescence assay
[10] = system: A549; assay: Induction of apoptosis in human A549 cells assessed as dead cells at 1 uM after 48 hrs by annexin V-FITC and propidium iodide double staining based flow cytometric analysis (Rvb =0.07%); format: functional
[11] = system: A549; assay: Induction of apoptosis in human A549 cells assessed as […] condensation at 1 uM after 48 hrs by Hoechst 33342 based fluorescent microscopic analysis; format: functional, cell-based
[12] = system: A549; assay: Induction of apoptosis in human A549 cells assessed as apoptotic bodies at 1 uM after 48 hrs by Hoechst 33342 based fluorescent microscopic analysis; format: functional, cell-based
[13] = system: A549; assay: Cell cycle arrest in human A549 cells assessed as accumulation at sub G1 phase at 2 uM after 48 hrs by propidium iodide based flow cytometry (reference value: 0.65%); format: functional
[14] = system: A549; assay: Inhibition of microtubule organization in human A549 cells at 1 uM after 48 hrs by immunofluorescence microscopic analysis; format: cell-based
[15] = system: A549; assay: Cell cycle arrest in human A549 cells assessed as accumulation at S phase at 2 uM after 48 hrs by propidium iodide based flow cytometry (reference value: 3.59%); format: functional
[16] = system: A549; assay: Induction of apoptosis in human A549 cells assessed as late apoptotic cells at 1 uM after 48 hrs by annexin V-FITC and propidium iodide double staining based flow cytometric analysis (reference value: 0.14%); format: functional
[17] = system: A549; assay: Cell cycle arrest in human A549 cells assessed as accumulation at G0/G1 phase at 2 uM after 48 hrs by propidium iodide based flow cytometry (reference value: 85.63%); format: functional
[18] = system: A549; assay: Induction of apoptosis in human A549 cells assessed as viable cells at 2 uM after 48 hrs by annexin V-FITC and propidium iodide double staining based flow cytometric analysis (reference value: 99.79%); format: functional; conditions: A549, 48 h, read-out: Activity
[19] = system: A549; assay: Induction of apoptosis in human A549 cells assessed as caspase-3 activation at 2 uM after 48 hrs by Ac-DEVD substrate based fluorescence assay relative to control; format: functional
[20] = system: A549; assay: Induction of apoptosis in human A549 cells assessed as early apoptotic cells at 2 uM after 48 hrs by annexin V-FITC and propidium iodide double staining based flow cytometric analysis (reference value: 0%); format: functional
[21] = system: A549; assay: Cell cycle arrest in human A549 cells assessed as accumulation at G2/M phase at 2 uM after 48 hrs by propidium iodide based flow cytometry (reference value: 10.39%); format: functional
[22] = system: A549; assay: Induction of apoptosis in human A549 cells assessed as caspase-3 activation at 1 uM after 48 hrs by Ac-DEVD substrate based fluorescence assay relative to control; format: functional
[23] = system: A549; assay: Cell cycle arrest in human A549 cells assessed as accumulation at G2/M phase at 1 uM after 48 hrs by propidium iodide based flow cytometry (reference value: 10.39%); format: functional
[24] = system: A549; assay: Induction of apoptosis in human A549 cells assessed as DNA fragmentation at 1 uM after 48 hrs by ethidium bromide based agarose gel electrophoresis; format: functional, cell-based
[25] = system: A549; assay: Induction of apoptosis in human A549 cells assessed as nuclear fragmentation at 1 uM after 48 hrs by Hoechst 33342 based fluorescent microscopic analysis; format: functional, cell-based
[26] = molecular target: Tubulin (Sus scrofa) (UniProt P02554+P02550); assay: Inhibition of porcine brain tubulin polymerization at 3 uM after 1 hr by fluorescence assay
[27] = system: A549; assay: Induction of apoptosis in human A549 cells assessed as early apoptotic cells at 1 uM after 48 hrs by annexin V-FITC and propidium iodide double staining based flow cytometric analysis (reference value: 0%); format: functional
[28] = system: A549; assay: Cell cycle arrest in human A549 cells assessed as accumulation at S phase at 1 uM after 48 hrs by propidium iodide based flow cytometry (reference value: 3.59%); format: functional
[29] = system: A549; assay: Induction of apoptosis in human A549 cells assessed as late apoptotic cells at 2 uM after 48 hrs by annexin V-FITC and propidium iodide double staining based flow cytometric analysis (reference value: 0.14%); format: functional

Sequence of Tubulin (Sus scrofa) (P02550 whole entry, looked up): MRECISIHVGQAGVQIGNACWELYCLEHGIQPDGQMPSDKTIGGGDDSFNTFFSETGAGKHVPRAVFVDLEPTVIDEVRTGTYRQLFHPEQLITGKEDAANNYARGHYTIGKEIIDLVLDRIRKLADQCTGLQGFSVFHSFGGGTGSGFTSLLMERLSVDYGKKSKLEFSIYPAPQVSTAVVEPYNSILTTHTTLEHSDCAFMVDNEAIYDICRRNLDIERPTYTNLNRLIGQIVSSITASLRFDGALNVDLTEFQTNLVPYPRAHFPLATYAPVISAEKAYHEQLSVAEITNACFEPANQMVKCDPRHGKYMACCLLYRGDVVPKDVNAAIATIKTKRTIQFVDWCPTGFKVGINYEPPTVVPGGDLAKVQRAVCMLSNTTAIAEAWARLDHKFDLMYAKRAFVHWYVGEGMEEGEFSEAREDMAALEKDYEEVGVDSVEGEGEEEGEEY
Sequence of Tubulin (Sus scrofa) (P02554 whole entry, looked up): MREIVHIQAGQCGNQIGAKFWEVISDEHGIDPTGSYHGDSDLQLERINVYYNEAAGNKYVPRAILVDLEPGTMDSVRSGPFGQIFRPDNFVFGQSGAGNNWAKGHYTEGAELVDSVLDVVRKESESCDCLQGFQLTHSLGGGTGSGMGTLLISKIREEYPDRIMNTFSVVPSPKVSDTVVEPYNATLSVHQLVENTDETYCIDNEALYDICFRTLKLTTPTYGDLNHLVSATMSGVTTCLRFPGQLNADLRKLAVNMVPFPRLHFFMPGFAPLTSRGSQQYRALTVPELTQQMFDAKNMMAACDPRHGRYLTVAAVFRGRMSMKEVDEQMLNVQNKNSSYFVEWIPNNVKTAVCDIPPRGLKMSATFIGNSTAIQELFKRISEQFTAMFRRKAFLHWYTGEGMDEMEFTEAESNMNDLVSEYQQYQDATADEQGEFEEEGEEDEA

COc1ccc(-c2nc3ccccn3c2-c2nc3ccc(F)cc3[nH]2)cc1
IC50 [1]: 14.6 µM
IC50 [2]: 14.8 µM
IC50 [3]: 17.6 µM
IC50 [4]: 15.9 µM

COc1ccc(-c2nc3ncccn3c2-c2nc3ccc(C)cc3[nH]2)cc1
IC50 [1]: 1.48 µM
Activity [5]: 0.76%
Activity [6]: 0.07%
Activity [7]: 82.68%
viability at 1 µM [8]: 90.2%
IC50 [9]: 2.06 µM
Activity [10]: 0.22%
IC50 [2]: 3.63 µM
Activity [11]: Active
Activity [12]: Active
Activity [13]: 2.19%
IC50 [3]: 2.57 µM
IC50 [4]: 7.08 µM
inhibition [14]: Active
Activity [15]: 3.63%
Activity [16]: 1.43%
Activity [17]: 59.33%
viability at 2 µM [18]: 85.1%
fold change (FC) [19]: 2
Activity [20]: 13.49%
Activity [21]: 29%
fold change (FC) [22]: 2
Activity [23]: 11.7%
Activity [24]: Active
Activity [25]: Active
inhibition [26]: 61.1%
Activity [27]: 8.18%
Activity [28]: 3.65%
Activity [29]: 1.3%

COc1ccc(-c2nc3ncccn3c2-c2nc3ccc(Cl)cc3[nH]2)cc1
IC50 [1]: 10.2 µM
IC50 [2]: 26.8 µM
IC50 [3]: 14 µM
IC50 [4]: 19.9 µM

Cc1ccc2nc(-c3c(-c4ccc(F)cc4)nc4ncccn34)[nH]c2c1
IC50 [1]: > 30 µM
IC50 [2]: 15.1 µM
IC50 [3]: 12.9 µM
IC50 [4]: 10.2 µM

COc1ccc2nc(-c3c(-c4ccc(F)cc4)nc4ncccn34)[nH]c2c1
IC50 [1]: 18.6 µM
IC50 [2]: > 30 µM
IC50 [3]: 19.9 µM
IC50 [4]: 16 µM

COc1ccc(-c2nc3ccccn3c2-c2nc3ccccc3[nH]2)cc1
IC50 [1]: 23.2 µM
IC50 [2]: > 30 µM
IC50 [3]: 20.4 µM
IC50 [4]: 24 µM

COc1ccc(-c2nc3ncccn3c2-c2nc3ccc(F)cc3[nH]2)cc1
IC50 [1]: 15.1 µM
IC50 [2]: 19.4 µM
IC50 [3]: 17 µM
IC50 [4]: 13.8 µM

Fc1ccc(-c2nc3ncccn3c2-c2nc3ccccc3[nH]2)cc1
IC50 [1]: 11 µM
IC50 [2]: 16.6 µM
IC50 [3]: 8.19 µM
IC50 [4]: 7.78 µM

COc1ccc(-c2nc3ccccn3c2-c2nc3ccc(OC)cc3[nH]2)cc1
IC50 [1]: > 30 µM
IC50 [2]: > 30 µM
IC50 [3]: > 30 µM
IC50 [4]: > 30 µM

COc1ccc(-c2nc3ncccn3c2-c2nc3ccc(OC)cc3[nH]2)cc1
IC50 [1]: 6.91 µM
IC50 [2]: 19.9 µM
IC50 [3]: 15.8 µM
IC50 [4]: 5.62 µM

Clc1ccc2nc(-c3c(-c4ccccc4)nc4ncccn34)[nH]c2c1
IC50 [1]: > 30 µM
IC50 [2]: > 30 µM
IC50 [3]: > 30 µM
IC50 [4]: > 30 µM

c1ccc(-c2nc3ncccn3c2-c2nc3ccccc3[nH]2)cc1
IC50 [1]: 1.92 µM
Activity [5]: 1.28%
Activity [6]: 0.18%
Activity [7]: 83.5%
viability at 1 µM [8]: 91.9%
IC50 [9]: 2.26 µM
Activity [10]: 0.35%
IC50 [2]: 10.5 µM
Activity [11]: Active
Activity [12]: Active
Activity [13]: 2.7%
IC50 [3]: 2.25 µM
IC50 [4]: 2.34 µM
inhibition [14]: Active
Activity [15]: 2.88%
Activity [16]: 2.69%
Activity [17]: 64.8%
viability at 2 µM [18]: 88.4%
fold change (FC) [19]: 2
Activity [20]: 10.25%
Activity [21]: 33.8%
fold change (FC) [22]: 2
Activity [23]: 12.6%
Activity [24]: Active
Activity [25]: Active
inhibition [26]: 60.5%
Activity [27]: 5.08%
Activity [28]: 3.71%
Activity [29]: 1.2%

Fc1ccc(-c2nc3ncccn3c2-c2nc3ccc(F)cc3[nH]2)cc1
IC50 [1]: 19.2 µM
IC50 [2]: 15.6 µM
IC50 [3]: 15.3 µM
IC50 [4]: 14.4 µM

Fc1ccc2nc(-c3c(-c4ccccc4)nc4ncccn34)[nH]c2c1
IC50 [1]: 8.51 µM
IC50 [2]: 17 µM
IC50 [3]: 6.91 µM
IC50 [4]: 4.89 µM

COC(=O)Nc1nc2cc(C(=O)c3cccs3)ccc2[nH]1 [NOCODAZOLE]
IC50 [1]: 1.62 µM
Activity [5]: 9.23%
Activity [7]: 63.76%
viability at 1 µM [8]: 87%
Activity [10]: 0.04%
IC50 [2]: 0.69 µM
IC50 [3]: 2.23 µM
IC50 [4]: 0.25 µM
Activity [16]: 1.29%
Activity [23]: 24.28%
inhibition [26]: 66.9%
Activity [27]: 11.71%
Activity [28]: 0.69%

COc1ccc2nc(-c3c(-c4ccccc4)nc4ncccn34)[nH]c2c1
IC50 [1]: 2.12 µM
IC50 [2]: 10.2 µM
IC50 [3]: 9.33 µM
IC50 [4]: 3.71 µM

COc1ccc(-c2nc3ccccn3c2-c2nc3ccc(Cl)cc3[nH]2)cc1
IC50 [1]: 19.4 µM
IC50 [2]: 16 µM
IC50 [3]: 14.5 µM
IC50 [4]: 19.5 µM

Cc1ccc2nc(-c3c(-c4ccccc4)nc4ncccn34)[nH]c2c1
IC50 [1]: 2.19 µM
IC50 [2]: 8.91 µM
IC50 [3]: 7.58 µM
IC50 [4]: 2.34 µM

Fc1ccc(-c2nc3ncccn3c2-c2nc3ccc(Cl)cc3[nH]2)cc1
IC50 [1]: 19.7 µM
IC50 [2]: > 30 µM
IC50 [3]: 20.3 µM
IC50 [4]: 12.6 µM

COc1ccc(-c2nc3ncccn3c2-c2nc3ccccc3[nH]2)cc1
IC50 [1]: 10.5 µM
IC50 [2]: 16.7 µM
IC50 [3]: 9.06 µM
IC50 [4]: 13.2 µM

COc1ccc(-c2nc3ccccn3c2-c2nc3ccc(C)cc3[nH]2)cc1
IC50 [1]: > 30 µM
IC50 [2]: > 30 µM
IC50 [3]: 26.4 µM
IC50 [4]: > 30 µM
